From ChEMBL document CHEMBL1148818, “1,2,4-triazol-3-yl-thiopropyl-tetrahydrobenzazepines: a series of potent and selective dopamine D(3) receptor antagonists” (J Med Chem, 2007)

Tests used:
in vivo [1] = settings: Sprague-Dawley, rat
in vivo [2] = settings: Sprague-Dawley, rat; remark: listed apart in the source
in vivo [3] = settings: Sprague-Dawley, rat, whole blood
in vitro = settings: human, liver microsomes

| bioavailability (in vivo [1]) | Vd (in vivo [2]) | clearance (in vivo [3]) | CLint scaled (in vitro) | Compound |
| --- | --- | --- | --- | --- |
| 24% | 3.4 L/kg | 38 mL/min/kg |  | Cc1ccc2c(-c3nnc(SCCCN4CCc5ccc(-c6cc(C)on6)cc5CC4)n3C)cccc2n1 |
| 27% | 7.9 L/kg | 59 mL/min/kg | 4.7 mL/min/g | Cc1ccc2c(-c3nnc(SCCCN4CCc5ccc(-c6ncc(C)o6)cc5CC4)n3C)cccc2n1 |
|  |  |  | 6.4 mL/min/g | Cc1cnc(-c2ccc3c(c2)CCN(CCCSc2nnc(-c4cccn4C)n2C)CC3)o1 |
